“Also recorded” adds a separate entry of the source. One block for each molecule: values may come before it.
Experiments:
ODC [1] = molecular target: T1, ODC (Homo sapiens, UniProt P11926); details: concentrations from 0.6 μM to 80 μM; cited from earlier work
T1 sequence (P11926 1-461): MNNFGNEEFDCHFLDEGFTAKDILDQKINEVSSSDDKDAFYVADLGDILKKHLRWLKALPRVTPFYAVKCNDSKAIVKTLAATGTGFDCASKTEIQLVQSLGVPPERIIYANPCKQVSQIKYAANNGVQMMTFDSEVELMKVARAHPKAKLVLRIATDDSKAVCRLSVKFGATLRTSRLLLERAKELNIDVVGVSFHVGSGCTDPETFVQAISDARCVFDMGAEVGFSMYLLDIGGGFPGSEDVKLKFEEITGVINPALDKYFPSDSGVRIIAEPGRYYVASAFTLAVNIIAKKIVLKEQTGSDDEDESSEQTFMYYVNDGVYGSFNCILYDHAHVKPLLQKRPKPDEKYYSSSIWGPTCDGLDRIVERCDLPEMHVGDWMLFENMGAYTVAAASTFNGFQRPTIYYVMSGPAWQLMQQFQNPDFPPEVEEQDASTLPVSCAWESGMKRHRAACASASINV

HCT116 cells = test: Intracellular polyamine pools by high pressure liquid chromatography after DFMO / PG-11144 treatment; format: cell-based, human
Method: DFMO (2- or α-difluoromethylornithine) can be obtained from Merrell Dow Pharmaceutical Inc. (Cincinnati, Ohio). Polyamine analogues are provided by Progen Pharmaceuticals Ltd. (Queensland, Australia). Stock solutions of each compound are diluted with medium to the desired concentrations for specific experiments. HCT116 colorectal carcinoma cells are maintained in McCoy's 5A medium supplemented with 9% FBS (Atlanta Biologicals, Lawrenceville, Ga.) and 1% penicillin/streptomycin (Mediatech, Manassas, Va.), and grown at 37° C. in 5% CO2 atmosphere. For experiments, HCT116 cells are first treated for 24 hours with 5 mM DFMO followed by another 24 hours treatment of replenished 5 mM DFMO and polyamine analogues in the indicated doses alone or simultaneously. Intracellular polyamine concentrations are determined by high pressure liquid chromatography.
A mixture of both D-enantiomer of DFMO and L-enantiomer of DFMO is used to generate data in Table 1.

SFRP2 in HCT116 cells = test: Re-expression of aberrantly silenced SFRP2, qPCR; format: cell-based, human
Method: HCT116 cells are first treated for 24 hour with 5 mM DFMO followed by another 24 hour treatment of replenished 5 mM DFMO and oligoamines (PG-11144 and PG-11150 for panel A, PG-11157, PG 11158 and PG-11159 for panel B) alone or simultaneously. RNA is extracted using TRIzol reagents and first-strand cDNA is synthesized using M-MLV reverse transcriptase with an oligo(dT) primer (Invitrogen). qPCR for SFRP2 is performed in a MyiQ single color real-time PCR machine with GAPDH as an internal control. The SFRP2 primers used for qPCR are: sense, 5′ AAGCCTGCAAAAATAAAAATGATG (SEQ ID NO: 1); antisense, 5′ TGTAAATGGTCTTGCTCTTGGTCT (SEQ ID NO: 2) (annealing at 53° C.). The quantified results are the mean of triplicate treatments. The transcript level for control samples was set to a value of 1. S.D. is indicated by the error bars.
HCT116 cells are first treated for 24 hours with 5 mM DFMO followed by another 24 hours treatment of replenished 5 mM DFMO and PG-11144 in the indicated doses alone or simultaneously. RNA isolation and qPCR are performed. The quantified results are the means of triplicate treatments with S.D. as indicated. The transcript level for control samples is set to a value of 1.
RNA Isolation and qPCR: RNA is extracted using TRIzol reagents (Invitrogen, Carlsbad, Calif.). First-strand cDNA is synthesized using M-MLV reverse transcriptase with an oligo(dT) primer (Invitrogen). qPCR is performed in a MyiQ single color real-time PCR machine (Bio-Rad, Hercules, Calif.) with GAPDH as an internal control. The SFRP2 primers used are: sense, 5′ AAGCCTGCAAAAATAAAAATGATG (SEQ ID NO: 1); antisense, 5′ TGTAAATGGTCTTGCTCTTGGTCT (SEQ ID NO: 2) (annealing at 53° C.).

[2] = test system: H3K4me2 at the promoter of SFRP2 in HCT116 cells; test: ChIP analysis of H3K4me2 at the SFRP2 promoter; format: cell-based, human; details: 2.5 μM PG-11144 alone
Method: HCT116 cells are first treated for 24 hours with 5 mM DFMO followed by another 24 hours treatment of replenished 5 mM DFMO and 2.5 μM PG-11144 alone or simultaneously. Chromatin immunoprecipitation (CHIP) analysis is performed using EZ-chip kit (Millipore). In brief, cells are exposed to 1% formaldehyde to cross-link proteins, and two million cells are used for each CHIP assay. Antibodies against H3K4me2, and for control, H3 are used as indicated for immunoprecipitation of protein-DNA complexes. Quantitative ChIP is performed using qPCR on the MyiQ single color real-time PCR machine. The PCR primer sets used for amplification of precipitated SFRP2 promoter fragments are as follows: sense, 5′ CTCCCTCCCAGCCTGCCCATCTT (SEQ ID NO: 3); antisense, 5′ ACTGCCCACCATTTCCCCGTTTTG (SEQ ID NO: 4) (annealing at 61° C.). The relative enrichment of H3K4me2 for control samples is set to a value of 1.
Chromatin Immunoprecipitation (ChIP): CHIP analysis is performed using EZ-chip kit (Millipore) according to the manufacturer's instruction. In brief, cells are exposed to 1% formaldehyde to cross-link proteins, and two million cells are used for each CHIP assay. Antibody against H3 can be obtained from Abeam (Cambridge, Mass.) and antibody against H3K4me2 can be obtained from Millipore. Quantitative ChIP is performed using qPCR on the MyiQ single color real-time PCR machine. […]

[3] = test system: HCT116 human colon tumors; test: Established tumors in nude mouse model; format: in vivo; details: PG-11144 alone, nude mice
ODC [4] = molecular target: T1, ODC; test: Inhibition of ODC activity by DFMO enantiomers; format: biochemical
Method: The use of D-DFMO or enriched D-isomer mixtures can overcome many of the problems associated with the use of racemic (50/50) D,L-DFMO. D-DFMO or enriched D-DFMO isomer mixtures may be administered at a dosage higher than a racemic mixture, due to lower anticipated toxicity associated with the D enantiomer. In three separate studies using concentrations from 0.6 μM to 80 μM D-, L-, and D,L-DFMO, the effective concentration level of each which inhibits 50% of the ODC activity (Ki) can be determined. Both enantiomers, as well as the racemic mixture, were inhibitory.

[5] = guinea pigs; cited from earlier work
[6] = test system: six human tumors (three mammary carcinomas, a malignant melanoma, a bladder carcinoma, an endocervical carcinoma); details: after DFMO treatment; cited from earlier work
[7] = test system: colon adenomas and carcinomas; details: animal models of colon carcinogenesis; cited from earlier work
[8] = test system: Egr1 and Oct4 genes in P19 embryonal carcinoma cells; details: cited from earlier work

SMILES: NCCCC(N)(C(=O)O)C(F)F (racemic) [D,L-DFMO]
Inhibition of ODC activity (ODC [1]): inhibitory

SMILES: CCNCCCCNCCCCNCCCCNCCCCNCC=CCNCCCCNCCCCNCCCCNCCCCNCC (stereo in doubt) [PG-11144]
Polyamines: Putresine (HCT116 cells; PG-11144 0.5 μM, 24 h): 4.7 nmol/mg Protein
Polyamines: Spermidine (HCT116 cells; PG-11144 0.5 μM, 24 h): 9.1 nmol/mg Protein
Polyamines: Spermine (HCT116 cells; PG-11144 0.5 μM, 24 h): 11.2 nmol/mg Protein
Polyamines: Putresine (HCT116 cells; PG-11144 1 μM, 24 h): 4.7 nmol/mg Protein
Polyamines: Spermidine (HCT116 cells; PG-11144 1 μM, 24 h): 8.4 nmol/mg Protein
Polyamines: Spermine (HCT116 cells; PG-11144 1 μM, 24 h): 10.1 nmol/mg Protein
Polyamines: Putresine (HCT116 cells; PG-11144 2.5 μM, 24 h): 3.8 nmol/mg Protein
Polyamines: Spermidine (HCT116 cells; PG-11144 2.5 μM, 24 h): 5.6 nmol/mg Protein
Polyamines: Spermine (HCT116 cells; PG-11144 2.5 μM, 24 h): 6.2 nmol/mg Protein
Polyamines: Putresine (HCT116 cells; PG-11144 5 μM, 24 h): 0.0 nmol/mg Protein
Polyamines: Spermidine (HCT116 cells; PG-11144 5 μM, 24 h): 4.2 nmol/mg Protein
Polyamines: Spermine (HCT116 cells; PG-11144 5 μM, 24 h): 4.9 nmol/mg Protein
Polyamines: Putresine (HCT116 cells; PG-11144 10 μM, 24 h): 0.0 nmol/mg Protein
Polyamines: Spermidine (HCT116 cells; PG-11144 10 μM, 24 h): 4.1 nmol/mg Protein
Polyamines: Spermine (HCT116 cells; PG-11144 10 μM, 24 h): 6.4 nmol/mg Protein
SFRP2 expression (SFRP2 in HCT116 cells; 2.5 μM PG-11144 alone): does not lead to increased SFRP2 expression
SFRP2 re-expression, synergy with DFMO (dose response) (SFRP2 in HCT116 cells; 5 μM PG-11144 with 5 mM DFMO): greatest synergy with DFMO
SFRP2 expression (dose response) (SFRP2 in HCT116 cells; PG-11144 concentrations higher than 5 μM with 5 mM DFMO): less SFRP2 expression
Promoter H3K4me2 levels (SFRP2 promoter, ChIP) [2]: does not lead to
Antitumor activity on established tumors [3]: effective in treating established tumors; also recorded: effective in shrinking established HCT116 human colon tumors

Ki of D-DFMO relative to the L-form (ODC [4]): four fold lower
Ki of D-DFMO relative to the mixture (ODC [4]): 3 fold
SMILES: NCCC[C@@](N)(C(=O)O)C(F)F [D-DFMO]
Inhibition of ODC activity (ODC [1]): inhibitory
Effect on auditory function (compound action potential, cochlear microphonic, cochlear potentials) [5]: no significant effects

SMILES: NCCC[C@](N)(C(=O)O)C(F)F [DFMO, 2-difluoromethylornithine]
Polyamines: Putresine (HCT116 cells; DFMO 5 mM alone): 0.0 nmol/mg Protein
Polyamines: Spermidine (HCT116 cells; DFMO 5 mM alone): 0.0 nmol/mg Protein
Polyamines: Spermine (HCT116 cells; DFMO 5 mM alone): 13.9 nmol/mg Protein
Growth of human tumors compared to control mice [6]: significantly decreased
Number and size of colon adenomas and carcinomas [7]: reduces the number and size of colon adenomas and carcinomas

SMILES: NCCC[C@](N)(C(=O)O)C(F)F [L-DFMO]
Inhibition of ODC activity (ODC [1]): inhibitory
Effect on auditory function (compound action potential, cochlear microphonic, cochlear potentials) [5]: significant disruption of normal cochlear potentials

SMILES: N[C@@H]1C[C@H]1c1ccccc1 [tranylcypromine, (1R,2S)-2-phenylcyclopropan-1-amine]
Effect on Egr1 and Oct4 gene transcription [8]: transcriptional de-repression
